Assay results taken from patent publication US20140303164A1, “THERAPEUTIC COMPOUNDS” (Gilead Sciences, Inc., priority 2013, published 2014).

Experiments:
[1] = Test B: Cytotoxicity Assay; format: cell-based; details: human, uninfected MT-4 cells, same protocol as Test A
Protocol: (§1) MT-4 cells were next mixed with HIV-IIIb at an m.o.i of 0.003 for 1 hour, after which time 35 μL of virus/cell mixture (2000 cells) was immediately added to each well containing 40 μL of diluted compound. The plates were then incubated at 37° C. for 5 days. […] Cell lysis was carried out by incubating at room temperature for 10 min and then chemiluminescence was read.
Test B: Cytotoxicity Assay
Compound cytotoxicity and the corresponding CC50 values was determined using the same protocol as described in the antiviral assay (Test A) except that uninfected cells were used.

HIV-IIIb = assay: Test A: Antiviral Assay in MT4 Cells; format: cell-based, HIV-1; details: for inhibition at 0.2 µM / inhibition at 2 µM: Human immunodeficiency virus 1, IIIB, MT4, 120 h; for inhibition at 0.2 µM: read-out: % inhibition at 0.2 μM; for inhibition at 2 µM: read-out: % inhibition at 2 μM
Protocol: Test A: Antiviral Assay in MT4 Cells
as §1

O=C(Cn1nc(C(F)F)c2c1C(F)(F)CCC2(F)F)N[C@@H](Cc1cc(F)cc(F)c1)c1nc(-c2c[nH]nn2)ccc1-c1cnc2[nH]ccc2c1 [Compound 16C, (S)—N-(1-(3-(1H-pyrrolo[2,3-b]pyridin-5-yl)-6-(1H-1,2,3-triazol-4-yl)pyridin-2-yl)-2-(3,5-difluorophenyl)ethyl)-2-(3-(difluoromethyl)-4,4,7,7-tetrafluoro-4,5,6,7-tetrahydro-1H-indazol-1-yl)acetamide]
CC50 at 5 days [1]: 3.67 µM | inhibition at 0.2 µM (HIV-IIIb): 23% | inhibition at 2 µM (HIV-IIIb): 65%

Cn1nc(NS(C)(=O)=O)c2cccc(-c3ccc(C#CC(C)(C)O)nc3[C@H](Cc3cc(F)cc(F)c3)NC(=O)Cn3nc(C(F)F)c4c3C(F)(F)[C@@H]3C[C@H]43)c21 [Compound 20, (S)—N-(1-(3-(1-methyl-3-(methylsulfonamido)-1H-indazol-7-yl)-6-(3-hydroxy-3-methylbut-1-ynyl)pyridin-2-yl)-2-(3,5-difluorophenyl)ethyl)-2-((3b-S,4aR)-5,5-difluoro-3-(difluoromethyl)-3b,4,4a,5-tetrahydro-1H-cyclopropa[3,4]cyclopenta[1,2-c]pyrazol-1-yl)acetamide]
CC50 at 5 days [1]: 11.2 µM | inhibition at 0.2 µM (HIV-IIIb): 96% | inhibition at 2 µM (HIV-IIIb): 80%

CC(C)(O)C#Cc1ncc(-c2ccc3c(c2)C(=O)NC3)c([C@H](Cc2cc(F)cc(F)c2)NC(=O)Cn2nc(C(F)F)c3c2C(F)(F)CCC3(F)F)n1 [Compound 21H, (S)-2-(3-(difluoromethyl)-4,4,7,7-tetrafluoro-4,5,6,7-tetrahydro-1H-indazol-1-yl)-N-(2-(3,5-difluorophenyl)-1-(2-(3-hydroxy-3-methylbut-1-yn-1-yl)-5-(3-oxoisoindolin-5-yl)pyrimidin-4-yl)ethyl)acetamide]
CC50 at 5 days [1]: 7.63 µM | inhibition at 0.2 µM (HIV-IIIb): 92% | inhibition at 2 µM (HIV-IIIb): 92%

CC(C)(O)C#Cc1ncc(-c2ccc3c(c2)C(=O)NC3)c([C@H](Cc2cc(F)cc(F)c2)NC(=O)Cn2nc(C(F)(F)F)c3c2C(F)(F)[C@@H]2C[C@H]32)n1 [Compound 22C, 2-((3bS,4aR)-5,5-difluoro-3-(trifluoromethyl)-3b,4,4a,5-tetrahydro-1H-cyclopropa[3,4]cyclopenta[1,2-c]pyrazol-1-yl)-N—((S)-2-(3,5-difluorophenyl)-1-(2-(3-hydroxy-3-methylbut-1-yn-1-yl)-5-(3-oxoisoindolin-5-yl)pyrimidin-4-yl)ethyl)acetamide]
CC50 at 5 days [1]: 4.95 µM | inhibition at 0.2 µM (HIV-IIIb): 92% | inhibition at 2 µM (HIV-IIIb): 92%

CC(C)(O)C#Cc1ncc(-c2ccc(F)c(C(N)=O)c2)c([C@H](Cc2cc(F)cc(F)c2)NC(=O)Cn2nc(C(F)(F)F)c3c2C(F)(F)[C@@H]2C[C@H]32)n1 [Compound 23B, 5-(4-((S)-1-(2-((3bS,4aR)-5,5-difluoro-3-(trifluoromethyl)-3b,4,4a,5-tetrahydro-1H-cyclopropa[3,4]cyclopenta[1,2-c]pyrazol-1-yl)acetamido)-2-(3,5-difluorophenyl)ethyl)-2-(3-hydroxy-3-methylbut-1-yn-1-yl)pyrimidin-5-yl)-2-fluorobenzamide]
CC50 at 5 days [1]: 7.62 µM | inhibition at 0.2 µM (HIV-IIIb): 83% | inhibition at 2 µM (HIV-IIIb): 88%

CC(C)(O)C#Cc1ccc(-c2cccc3c(=O)[nH]ccc23)c([C@H](Cc2cc(F)cc(F)c2)NC(=O)Cn2nc(C(F)(F)F)c3c2C(F)(F)[C@@H]2C[C@H]32)n1 [Compound 24B, 2-((3bS,4aR)-5,5-difluoro-3-(trifluoromethyl)-3b,4,4a,5-tetrahydro-1H-cyclopropa[3,4]cyclopenta[1,2-c]pyrazol-1-yl)-N—((S)-2-(3,5-difluorophenyl)-1-(6-(3-hydroxy-3-methylbut-1-yn-1-yl)-3-(1-oxo-1,2-dihydroisoquinolin-5-yl)pyridin-2-yl)ethyl)acetamide]
CC50 at 5 days [1]: 5.92 µM | inhibition at 0.2 µM (HIV-IIIb): 78% | inhibition at 2 µM (HIV-IIIb): 83%

Cn1nc(N)c2cccc(-c3ccc(C#CC(C)(C)O)nc3[C@H](Cc3cc(F)cc(F)c3)NC(=O)Cn3nc(C(F)(F)F)c4c3C(F)(F)[C@@H]3C[C@H]43)c21 [Compound 25, N—((S)-1-(3-(3-amino-1-methyl-1H-indazol-7-yl)-6-(3-hydroxy-3-methylbut-1-yn-1-yl)pyridin-2-yl)-2-(3,5-difluorophenyl)ethyl)-2-((3b-S,4aR)-5,5-difluoro-3-(trifluoromethyl)-3b,4,4a,5-tetrahydro-1H-cyclopropa[3,4]cyclopenta[1,2-c]pyrazol-1-yl)acetamide]
CC50 at 5 days [1]: 9.14 µM | inhibition at 0.2 µM (HIV-IIIb): 89% | inhibition at 2 µM (HIV-IIIb): 89%

CC(C)(O)C#Cc1ccc(-c2ccc3n[nH]c(=O)n3c2)c([C@H](Cc2cc(F)cc(F)c2)NC(=O)Cn2nc(C(F)(F)F)c3c2C(F)(F)[C@@H]2C[C@H]32)n1 [Compound 26, 2-((3bS,4aR)-5,5-difluoro-3-(trifluoromethyl)-3b,4,4a,5-tetrahydro-1H-cyclopropa[3,4]cyclopenta[1,2-c]pyrazol-1-yl)-N—((S)-2-(3,5-difluorophenyl)-1-(6-(3-hydroxy-3-methylbut-1-yn-1-yl)-3-(3-oxo-2,3-dihydro-[1,2,4]triazolo[4,3-a]pyridin-6-yl)pyridin-2-yl)ethyl)acetamide]
CC50 at 5 days [1]: 10 µM | inhibition at 0.2 µM (HIV-IIIb): 84% | inhibition at 2 µM (HIV-IIIb): 100%

Cc1c(-c2ccc(C#CC(C)(C)O)nc2[C@H](Cc2cc(F)cc(F)c2)NC(=O)Cn2nc(C(F)(F)F)c3c2C(F)(F)[C@@H]2C[C@H]32)ccc2n[nH]c(=O)n12 [Compound 27G, 2-((3bS,4aR)-5,5-difluoro-3-(trifluoromethyl)-3b,4,4a,5-tetrahydro-1H-cyclopropa[3,4]cyclopenta[1,2-c]pyrazol-1-yl)-N—((S)-2-(3,5-difluorophenyl)-1-(6-(3-hydroxy-3-methylbut-1-yn-1-yl)-3-(5-methyl-3-oxo-2,3-dihydro-[1,2,4]triazolo[4,3-a]pyridin-6-yl)pyridin-2-yl)ethyl)acetamide]
CC50 at 5 days [1]: 10.4 µM | inhibition at 0.2 µM (HIV-IIIb): 89% | inhibition at 2 µM (HIV-IIIb): 89%

CC(C)(O)C#Cc1ccc(-c2ccc(F)c(C(N)=O)c2)c([C@H](Cc2cc(F)cc(F)c2)NC(=O)Cn2nc(C(F)F)c3c2C(F)(F)CCC3(F)F)n1 [Compound 28, (S)-5-(2-(1-(2-(3 (difluoromethyl)-4,4,7,7-tetrafluoro-4,5,6,7-tetrahydro-1H-indazol-1-yl)acetamido)-2-(3,5-difluorophenyl)ethyl)-6-(3-hydroxy-3-methylbut-1-yn-1-yl)pyridin-3-yl)-2-fluorobenzamide]
CC50 at 5 days [1]: 12.2 µM | Response at 0.2 μM (HIV-IIIb; percent inhibition of virus-induced cell killing at 0.2 μM, comparison with previously published compounds (WO 2013/006738)): 71% | Response at 2 μM (HIV-IIIb; percent inhibition of virus-induced cell killing at 2 μM, comparison with previously published compounds (WO 2013/006738)): 84%

CC(C)(O)C#Cc1ccc(-c2cc(F)c(F)c(C(N)=O)c2)c([C@H](Cc2cc(F)cc(F)c2)NC(=O)Cn2nc(C(F)(F)F)c3c2C(F)(F)[C@@H]2C[C@H]32)n1 [Compound 30, 5-(2-((S)-1-(2-((3bS,4aR)-5,5-difluoro-3-(trifluoromethyl)-3b,4,4a,5-tetrahydro-1H-cyclopropa[3,4]cyclopenta[1,2-c]pyrazol-1-yl)acetamido)-2-(3,5-difluorophenyl)ethyl)-6-(3-hydroxy-3-methylbut-1-yn-1-yl)pyridin-3-yl)-2,3-difluorobenzamide]
CC50 at 5 days [1]: 8.58 µM | inhibition at 0.2 µM (HIV-IIIb): 1% | inhibition at 2 µM (HIV-IIIb): 91%

C#Cc1ccc(-c2ccc(Cl)c3cnn(C)c23)c([C@H](Cc2cc(F)cc(F)c2)NC(=O)Cn2nc(C(F)F)c3c2C(F)(F)[C@@H]2C[C@H]32)n1 [Compound 136D, N—((S)-1-(3-(4-chloro-1-methyl-1H-indazol-7-yl)-6-ethynylpyridin-2-yl)-2-(3,5-difluorophenyl)ethyl)-2-((3b-S,4aR)-3-(difluoromethyl)-5,5-difluoro-3b,4,4a,5-tetrahydro-1H-cyclopropa[3,4]cyclopenta[1,2-c]pyrazol-1-yl)acetamide]
CC50 at 5 days [1]: 7.43 µM

Cn1nc(NS(C)(=O)=O)c2cccc(-c3cnc([C@H](Cc4cc(F)cc(F)c4)NC(=O)Cn4nc(C(F)F)c5c4C(F)(F)[C@@H]4C[C@H]54)c(-c4cccc5c(NS(C)(=O)=O)nn(C)c45)n3)c21 [Compound 146I, N—((S)-1-(3,5-bis(1-methyl-3-(methylsulfonamido)-1H-indazol-7-yl)pyrazin-2-yl)-2-(3,5-difluorophenyl)ethyl)-2-((3b-S,4aR)-3-(difluoromethyl)-5,5-difluoro-3b,4,4a,5-tetrahydro-1H-cyclopropa[3,4]cyclopenta[1,2-c]pyrazol-1-yl)acetamide]
CC50 at 5 days [1]: 33.5 µM

Cn1nc(NS(C)(=O)=O)c2c(Cl)ccc(-c3ccc(C#CC(C)(C)O)nc3[C@H](Cc3cc(F)cc(F)c3)NC(=O)Cn3nc(C(=O)O)c4c3C(F)(F)[C@@H]3C[C@H]43)c21 [Compound 147, (3bS,4aR)-1-(2-(((S)-1-(3-(4-chloro-1-methyl-3-(methylsulfonamido)-1H-indazol-7-yl)-6-(3-hydroxy-3-methylbut-1-yn-1-yl)pyridin-2-yl)-2-(3,5-difluorophenyl)ethyl)amino)-2-oxoethyl)-5,5-difluoro-3b,4,4a,5-tetrahydro-1H-cyclopropa[3,4]cyclopenta[1,2-c]pyrazole-3-carboxylic acid]
CC50 at 5 days [1]: > 53.2 µM

Cn1nc(NS(=O)(=O)C(F)(F)F)c2c(Cl)ccc(-c3ccc(C#CC(C)(C)O)nc3[C@H](Cc3cc(F)cc(F)c3)NC(=O)Cn3nc(C(F)F)c4c3C(F)(F)[C@@H]3C[C@H]43)c21 [Compound 171D, N—((S)-1-(3-(4-chloro-1-methyl-3-(trifluoromethylsulfonamido)-1H-indazol-7-yl)-6-(3-hydroxy-3-methylbut-1-yn-1-yl)pyridin-2-yl)-2-(3,5-difluorophenyl)ethyl)-2-((3b-S,4aR)-3-(difluoromethyl)-5,5-difluoro-3b,4,4a,5-tetrahydro-1H-cyclopropa[3,4]cyclopenta[1,2-c]pyrazol-1-yl)acetamide]
CC50 at 5 days [1]: > 42.5 µM
